Each structure is given as a SMILES string. Calls of active or inactive are those of the source. No cut-off for these calls is given here.

The nature of assay [1]: Cytotoxicity against human HCT116 cells assessed as cell viability at 40 uM after 48 hrs by MTS assay. The note with it: HCT-116, 48 h, read-out: Activity. It counts as functional. On the technique in general: Tetrazolium assays rely on reduction of a dye to a coloured formazan, in cell work by metabolically active cells.
Assay [2] in a line: Cytotoxicity against human HCT116 cells assessed as cell viability at 40 uM after 48 hrs by MTS assay in presence of doxorubicin. It counts as functional. The settings on record: HCT-116, 48 h, read-out: Activity.
Assay [3] concerns the target T1, Protein phosphatase 1D (Homo sapiens) (UniProt O15297).
T1 sequence (whole entry): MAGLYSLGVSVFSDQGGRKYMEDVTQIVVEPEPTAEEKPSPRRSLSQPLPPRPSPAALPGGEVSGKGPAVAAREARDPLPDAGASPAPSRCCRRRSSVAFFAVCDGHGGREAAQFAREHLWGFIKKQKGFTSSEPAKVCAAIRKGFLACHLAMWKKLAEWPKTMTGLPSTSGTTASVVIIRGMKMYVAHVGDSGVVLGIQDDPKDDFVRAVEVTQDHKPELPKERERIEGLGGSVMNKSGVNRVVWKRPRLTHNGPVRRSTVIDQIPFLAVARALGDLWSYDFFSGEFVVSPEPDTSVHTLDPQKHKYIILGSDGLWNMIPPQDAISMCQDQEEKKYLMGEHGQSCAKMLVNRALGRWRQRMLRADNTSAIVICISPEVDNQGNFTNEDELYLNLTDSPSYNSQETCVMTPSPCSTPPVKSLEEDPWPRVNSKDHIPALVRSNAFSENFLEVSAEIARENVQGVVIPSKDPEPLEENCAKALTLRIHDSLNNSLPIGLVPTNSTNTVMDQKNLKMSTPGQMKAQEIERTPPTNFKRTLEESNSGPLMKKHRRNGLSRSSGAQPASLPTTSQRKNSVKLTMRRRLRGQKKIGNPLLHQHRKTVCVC
The assay can be described thus: Inhibition of C-terminal truncated PPM1D in human HCT116 cells assessed as increase in Ser15 phosphorylated p53 level at 40 uM after 24 to 48 hrs by western blotting in presence of doxorubicin. It counts as cell-based. The settings on record: HCT-116. On the technique in general: In western blotting, separated proteins are transferred to a membrane and probed.

In assay [4] the target is T1, Protein phosphatase 1D (Homo sapiens). The assay can be described thus: Inhibition of C-terminal truncated PPM1D in human HCT116 cells assessed as increase in p21 level at 40 uM after 24 to 48 hrs by western blotting in presence of doxorubicin. The note with it: HCT-116. It counts as cell-based.
Assay [5] relates to HCT-116. The assay can be described thus: Increase in C-terminal truncated PPM1D level in human HCT116 cells at 40 uM after 24 to 48 hrs by western blotting in presence of doxorubicin. It counts as functional, cell-based.
In assay [6] the test system is HCT-116. Description: Cytotoxicity against human HCT116 cells assessed as inhibition of cell viability after 48 hrs by MTS assay. It counts as functional, cell-based.
For assay [7], the system named is A549. Description: Cytotoxicity against human A549 cells assessed as inhibition of cell viability after 48 hrs by MTS assay. It counts as functional, cell-based.
The nature of assay [8]: Cytotoxicity against human HCT116 cells assessed as cell viability at 2 uM after 48 hrs by MTS assay. It counts as functional. The note with it: HCT-116, 48 h, read-out: Activity.
The subject of assay [9] is A549. The assay can be described thus: Cytotoxicity against human A549 cells assessed as cell viability at 2 uM after 48 hrs by MTS assay. The note with it: A549, 48 h, read-out: Activity. The class given is functional.
In assay [10] the target is T1, Protein phosphatase 1D (Homo sapiens). The assay can be described thus: Inhibition of C-terminal truncated PPM1D in human HCT116 cells assessed as increase in Ser15 phosphorylated p53 level at 2 uM after 24 to 48 hrs by western blotting. The class given is cell-based. The note with it: HCT-116.
The target is the same in assay [11]. Description: Inhibition of C-terminal truncated PPM1D in human HCT116 cells assessed as increase in p21 level at 2 uM after 24 to 48 hrs by western blotting. The class given is cell-based. The settings on record: HCT-116.

`CC[Si](CC)(CC)O[C@@H]1C[C@H](C)C[C@@H]2[C@@H]1C[C@H](O[Si](C)(C)C(C)(C)C)[C@@H]1[C@](C)(CO)C[C@H](O)C[C@@]21C`: the figures for the viability at 40 µM in assay [1] and in [2] were 94.2% and 26.3%, respectively. The inhibition result in [3] and in [4] was “Active” throughout. Also, the outcome in the assay with HCT-116 [5] was Active.

`COc1cccc2c1C(=O)c1c(O)c3c(c(O)c1C2=O)C[C@@](O)(C(=O)CO)C[C@@H]3O[C@H]1C[C@H](N)[C@H](O)[C@H](C)O1` [DOXORUBICIN]: the inhibition entry in the assay on HCT-116 [6] and in the assay on A549 [7] was “Dose-dependent effect” each time. In addition, the viability at 2 µM worked out at 40.7% in assay [8] and 5% in the assay on A549 [9]. The inhibition entry in [10] and in [11] was “Active” each time.
